Tested on: THP-1 viability, CellTiter-Glo luminescence, 72 h
Assay: human monocytic cell viability reduction – S. typhimurium screen hits, cytotoxicity control for Salmonella PhoP regulon inhibitors, dose response (AID 2253)

Row | Structure (SMILES) | EC50 [µM]
1 | CC(=O)NC(c1ccc2ccccc2c1)c1ccc2cccnc2c1O (centres undefined) | 0.24
2 | COC(=O)c1cc(C)nc2c1C(=O)C(=O)C=C2N1CCOCC1 | 2.97
3 | N#C/C(=C\c1ccc(F)c(F)c1)C(=O)NC1CCCCC1 | 46.6
4 | Cc1c(C(=O)Nc2cccc(Cl)c2)c2ccccn2c1CCc1ccncc1 | 24.7
5 | O=C(N/N=C/c1ccc(Sc2ccccn2)o1)c1cc2ccccc2cc1O | 35.4
6 | CCOC(=O)CSc1n[nH]c(NC(=O)c2cccc(C)c2)n1 | 48.7
7 | CN(C)c1ccc(/C=C/c2ccc3c4ccccc4ccc3[n+]2-c2ccccc2)cc1 | 0.26
8 | COc1cccc(Cn2cnc3c(NS(=O)(=O)c4cccc(Cl)c4Cl)c(C)c(C)cc32)c1 | 40.4
9 | CCCC(=O)NC(c1ccc(C)cc1)c1ccc2cccnc2c1O (centres undefined) | 0.46
10 | O=C(N/N=C/c1ccc(O)cc1O)/C(=C/c1ccccc1)CCO | 4.05
11 | CC(C)C(=O)NC(c1cccc([N+](=O)[O-])c1)c1ccc2cccnc2c1O (centres undefined) | 0.51
12 | Clc1cc(Br)ccc1OCCCNCc1ccccc1 | 22.8
13 | Cc1ccc(C(C[N+](=O)[O-])c2c(N)n(C)c(=O)n(C)c2=O)cc1 (centres undefined) | 34.2
14 | O=C(NCCCc1ccccc1)Nc1cccc(Cl)c1 | 37
15 | COC(=O)C(C)NC(=S)N1CCN(c2c(F)cc3c(=O)c(C(=O)O)cn(C4CC4)c3c2OC)CC1C (centres undefined) | 20
16 | O=S(=O)(c1ccccc1)N(CC(O)Cn1c2ccccc2c2ccccc21)c1ccccc1 (centres undefined) | 11.1
17 | O=[N+]([O-])c1ccc(-n2nnnc2-c2ccccc2)c([N+](=O)[O-])c1 | 10.1
18 | Cc1ccc(Nc2nc(Cl)nc(N(C)C#N)n2)cc1 | 13.6
19 | Oc1cccc2ccc(Nc3ccccn3)nc12 | 2.16
20 | O=C(C[n+]1cc(-c2ccccc2)n2c1CCCCC2)c1ccc(Cl)cc1 | 28.9
21 | CC1(C)SC(=S)N(NC(=O)Nc2ccccc2)C1N(O)C(=O)Nc1ccccc1 (centres undefined) | 37.8
22 | OCCNCc1c(OCc2ccc(Cl)cc2)ccc2ccccc12 | 7.52
23 | COc1cccc(Nc2nc(-c3sc(NC(=O)c4ccco4)nc3C)cs2)c1 | 40.5

Row | Structure (SMILES) | EC50 [µM]
24 | C#CC(=O)N(c1cc(OC)ccc1OC)C(C(=O)NC1CCCC1)c1cccs1 (centres undefined) | 1.42
25 | Cc1cccc(NC(=O)Cn2c(/C=C/c3ccccc3)nc3ccccc32)c1 | 45
26 | CCCCCCOC(=O)C[N+](C)(C)CCOC1CC2CCC1(C)C2(C)C (centres undefined) | 2.8
27 | C#CCOc1ccc(/C=C2\SC(=S)N(Cc3cccnc3)C2=O)cc1 | 5.67
28 | Oc1c(CN2CCc3ccccc3C2)cc(Cl)c2cccnc12 | 8.71
29 | O=S(=O)(Nc1cc(Sc2ncn[nH]2)c(O)c2ccccc12)c1ccccc1 | 5.35
30 | Oc1c(Cl)cc(Cl)c(Cl)c1Cc1c(O)c(Cl)cc(Cl)c1Cl | 14.7
31 | O=C(Nc1nc2cc3c(cc2s1)OCO3)C1=COCCO1 | 6.67
32 | Cc1cc(C)nc(/N=C(\N)Nc2ccc(SC(F)F)cc2)n1 | 13.1
33 | OC(CNCCc1ccccc1)COc1ccc(OCC(O)CNCCc2ccccc2)cc1 (centres undefined) | 6
34 | Cc1ccccc1OCc1n(CC(=O)OC2CC(C)CCC2C(C)C)c2ccccc2[n+]1C (centres undefined) | 2
35 | Cc1ccc(Nc2cc(C)nn2-c2nc(C)cc(=O)[nH]2)cc1 | 0.62
36 | CCCCCCCCn1c2c(c(=N)c3c1CCC3)CCCC2 | 0.78
37 | COc1ccc(Nc2cc(C)c3c(O)cccc3n2)cc1 | 15
38 | O=C(N/N=C/c1sc2ccccc2c1O)c1cccc2ccccc12 | 3.51
39 | O=C(Nc1cccc(Cl)c1)C1C2CCC3C(CCC21)C3(Cl)Cl (centres undefined) | 27.2
40 | CCc1ccc(C(c2c(C)nn(-c3ccccc3)c2N)c2c(C)nn(-c3ccccc3)c2N)cc1 | 46.1
41 | CCCCCCCCOC(=O)C1=C(C)Nc2nnnn2C1c1cccs1 (centres undefined) | 21.8
42 | CCCCCOc1ccc(Br)cc1CSC(=N)N | 1.86
43 | CN(C)CCCNc1cc(C(C)(C)C)nc2c(-c3ccccc3)cnn12 | 9.26
44 | C#CCOCCOCCOCCNc1nc(N2CCN(C(=O)CCCCCCCCCCNC(=O)[C@H]([C@@H](C)CC)n3cc(CCCCN=C(N)N)nn3)CC2)nc(N2CCN(C(=O)CCCCCCCCCCNC(=O)[C@H](CCCN=C(N)N)n3cc(C[C@@H](C)CC)nn3)CC2)n1 | 3.57
45 | COc1cccc(C2CC(=O)Nc3cc(OC)c(OC)c(OC)c32)c1OC (centres undefined) | 46.2
46 | CC(C)(C)c1nn(-c2ccccc2)c2[nH]c(=O)c(CNCc3ccco3)cc12 | 49.6

Row | Structure (SMILES) | EC50 [µM]
47 | c1ccc2c(CCNCc3ccc4c(c3)OCO4)c[nH]c2c1 | 24.2
48 | C/C(=N\Nc1nc2ccccc2[nH]1)c1ccccn1 | 0.92
49 | Nc1cccc2nc3ccccc3cc12 | 4.25
50 | Cc1cc(C)cc(CC(Cc2nc3ccccc3[nH]2)c2nc3ccccc3[nH]2)c1 (centres undefined) | 11.8
51 | Nc1c(C(=O)NCCc2ccc(Cl)cc2)sc2ccc(S(=O)(=O)N3CCCCC3)cc12 | 31.5
52 | C(=C\c1ccccc1)/C=N/Nc1nc2ccccc2[nH]1 | 15.5
53 | CC1(C)CC(=O)C2=C(C1)N(c1ccc(F)cc1)C(N)=C(C#N)C2c1cccs1 (centres undefined) | 35.6
54 | Cc1ccc(Nc2c3c(nc4ccccc24)CCC3)cc1 | 12.2
55 | CCN(CC)c1ccc(/C=N/Nc2nc3ccccc3[nH]2)c(O)c1 | 2.7
56 | O=C(C[n+]1cc(-c2ccc(Cl)c(Cl)c2)n2c1CCC2)N1c2ccccc2Sc2ccccc21 | 17.8
57 | CCCC(=O)NC(c1ccc(Cl)cc1)c1ccc2cccnc2c1O (centres undefined) | 0.38
58 | CCCc1cc(-c2nc(N)ncc2-c2ccc3c(c2)OCCCO3)c(O)cc1OC | 19.9
59 | CN1CCN(C(c2ccc(C(F)(F)F)cc2)c2cc(Cl)c3cccnc3c2O)CC1 (centres undefined) | 2.96
60 | C/C(=N\NC(=O)c1cc2ccccc2cc1O)c1ccccn1 | 0.76
61 | Cc1[nH]nc2c1C(c1cc(Br)cs1)C(C#N)=C(N)O2 (centres undefined) | 11.2
62 | CC1CCC(C(C)C)C(OC(=O)Cn2c(COc3ccccc3)[n+](C)c3ccccc32)C1 (centres undefined) | 2.6
63 | O=C1c2ccccc2NC(c2ccc(-c3cccc([N+](=O)[O-])c3)o2)N1O (centres undefined) | 6.61
64 | O=C(C[n+]1cc(-c2ccc(Cl)cc2)n2c1CCC2)Nc1nc(-c2ccc(F)cc2)cs1 | 26.7
65 | CCCCCCCCCCOC(=O)Cn1c(COc2ccc(Cl)cc2)[n+](C)c2ccccc21 | 2.05
66 | COc1cc(C(=O)Oc2c(CN3CCOCC3)cc(Cl)c3cccnc23)cc(OC)c1OC | 4.46
67 | Cc1ccc(C(=O)N/N=C/c2cc(Br)ccc2O)cn1 | 1.78
68 | Cc1cc(C(=O)N/N=C/c2ccc([N+](=O)[O-])s2)n[nH]1 | 12.8
69 | Cc1cc(C)cc(OC(=O)CS(=O)c2ccc(C(F)(F)F)cc2[N+](=O)[O-])c1 (centres undefined) | 5.98

Row | Structure (SMILES) | EC50 [µM]
70 | COc1c(N2CCN(C(=S)NCc3ccccc3)C(C)C2)c(F)cc2c(=O)c(C(=O)O)cn(C3CC3)c12 (centres undefined) | 15.4
71 | Oc1ccc(/C=N/NC(=S)Nc2cccnc2)c(O)c1 | 3.21
72 | Cc1nn(-c2ccccc2)c(C)c1/C=N/NC(=O)c1cc(-c2cccc3ccccc23)n[nH]1 | 17.4
73 | Cc1ccccc1NC(=O)CCC(=O)N/N=C/c1cc([N+](=O)[O-])ccc1O | 19.5
74 | COc1cc([N+](=O)[O-])cc(/C=N/NC(=O)c2cccnc2)c1O | 32
75 | CCCCCCCCCCCCCCCC[n+]1cccc2ccccc21 | 0.27
76 | Cc1c(C)n(Cc2ccccc2)c2ncnc(NN)c12 | 23.4
77 | Clc1ccc(-c2c[n+](Cc3ccc(Cl)cc3Cl)c3n2CCCCC3)cc1 | 3.61
78 | Cc1cc(/C=N/n2c(COc3ccccc3C)nc3ccccc3c2=O)c(O)c([N+](=O)[O-])c1 | 2.52
79 | c1ccc2c(c1)Sc1ccccc1N2CC1CN2CCC1CC2 (centres undefined) | 7.93
80 | Cc1ccc(Nc2nc(NCc3ccco3)c3ccccc3n2)cc1 | 4.34
81 | C/C(=N\N=C(N)N)c1ccc(Cl)c(Cl)c1 | 11.2
82 | O=S(=O)(Nc1cc(Sc2cccc3cccnc23)c(O)c2ccccc12)c1ccc(F)cc1 | 2.82
83 | Cc1ccc(/C=C/C(=O)c2ccccc(=O)c2O)cc1C | 17.2
84 | CCOC(=O)c1ccc(-c2ccc(C3Nc4ccccc4C(=O)N3O)o2)cc1 (centres undefined) | 9.38
85 | COc1c(Cl)cnn(-c2ccc(C)cc2)c1=O | 16.5
86 | O=[N+]([O-])c1cc(O)c2ncccc2c1 | 6.48
87 | C/C(=N\NC(=S)Nc1ccc(F)cc1)c1ccc2c(c1)OCCO2 | 10.5
88 | N=c1n(CCO)c2ccccc2n1Cc1ccc(Cl)cc1 | 41.1
89 | Cc1cc(C2=NNC(=NC3CC3)SC2)c(C)n1Cc1ccco1 | 5.69
90 | CC(C(=O)c1ccc(-c2ccccc2)cc1)[n+]1cccc(NC(=O)c2ccccc2)c1 (centres undefined) | 19.6
91 | Cc1nc2c(=O)n(C)c(=O)nc-2n(C)n1 | 1.22
92 | Cc1cccc(Nc2cc(C)c3c(O)cccc3n2)c1C | 8.98

Row | Structure (SMILES) | EC50 [µM]
93 | c1ccc(CN2CCN(c3nc(NCc4ccco4)c4ccccc4n3)CC2)cc1 | 20.6
94 | Nc1ncn([C@@H]2O[C@H](CO)[C@@H](O)[C@H]2O)c(=O)n1 | 17.4
95 | O=C1C(=O)c2ccccc2-c2ccccc21 | 8.03
96 | COc1ccc(Nc2ccc3c(c2)=NC2(CCCCC2)[N+]=3[O-])cc1 | 4.59
97 | O=C(c1[nH]ncc1-c1ccc(Cl)cc1)C1CO1 (centres undefined) | 13.3
98 | COc1ccc(OCc2n(CC(=O)OC3CC(C)CCC3C(C)C)c3ccccc3[n+]2C)cc1 (centres undefined) | 1.6
99 | Cc1ccc(-c2c[n+](CC(=O)Nc3nc(-c4ccc(F)cc4)cs3)c3n2CCC3)cc1 | 9.65
100 | CN(O)/C=c1/ccc2c(n1)C(=O)C=CC=2 | 23.3
101 | COc1ccc2ccccc2c1/C=N/NC(=O)c1sc(N)c(C#N)c1C | 30.1
102 | COc1ccc(Nc2nnc(SCc3cn4c(C)cccc4n3)s2)cc1 | 9.34
103 | CN(C)S(=O)(=O)c1cccc(NC(=S)N/N=C/c2cc(Br)ccc2O)c1 | 0.65
104 | O=C1NC2=C(CCc3ccccc32)C(c2ccc(Br)cc2)N1 (centres undefined) | 19.3
105 | O=C(N/N=C/c1cc(Cl)ccc1O)c1cccnc1 | 2.08
106 | CC(=O)c1ccc(NC(=O)Nc2cccc(Cl)c2)cc1 | 20.1
107 | O=S1(=O)Nc2c(ccc3cccnc23)-c2ccccc21 | 0.69
108 | O=C1c2cccc(OCC(=O)N3N=C(c4cccs4)CC3c3ccc(F)cc3)c2CCN1Cc1cccnc1 (centres undefined) | 47.9
109 | Cc1cc(C2=NNC(=NC3CC3)SC2)c(C)n1-c1ccccc1 | 46.9
110 | Nc1cc2nsnc2cc1Br | 7.44
111 | Oc1ccc(N2CCN(Cc3ccc(OCCCN4CCCCC4)cc3)CC2)cc1 | 29.5
112 | S=C(Nc1cccc(Cl)c1)Nc1cccc2cnccc12 | 19
113 | Cc1cc(/C=N/NC(N)=S)c(C)n1-c1ccc(Cl)c(Cl)c1 | 19.8
114 | O=C(NC(=S)NNC(=O)c1ccccc1O)c1ccco1 | 14.6

Reference: PubChem BioAssay AID2253 (Southern Research Specialized Biocontainment Screening …, 2010)
